According to patent US20040082479A1, “Method for soil sterilization from pathogens” (priority 2001, published 2004):

Assays:
[1] = system: Fusarium oxysporum f. sp. vasinfectum; assay: Linear (radial) growth of fungi in vitro on potato dextrose agar with allicin; assay type: cell-based; settings: PDA; for Linear growth, mm radius of growth: 0.1 ml allicin solution 2 mg/ml; for Effect on growth of the fungus (in words): in vitro
Method: (§1) Pure allicin in aqueous solution at 2 mg/ml was obtained as previously described in International PCT Publication WO 97/39115, following the interaction of synthetic, nature-identical alliin (allylcysteine sulfoxide) with a preparation of stabilized garlic alliinase. Fungal plant pathogens were grown in soil as previously described (Ko et al, 1971). Contamination of soil with Rhizoctonia solani and infection of bean seedlings was determined as previously reported (Chet, 1987).
(§2) The effect of allicin on the growth of a number of known soil fungal pathogens was examined in vitro. Fungi were innoculated in Petri dishes containing potato dextrose agar (PDA, Difco) and the radial growth rate of the fungi was measured every 24 hours. The effect of the addition of 0.1 ml of a solution of allicin (2.0 mg/ml) on the radial growth rate of the pathogen was determined after 24, 48, 72 and 96 hours.

Rhizoctonia solani Kuhn = assay: as above; assay type: cell-based; settings: PDA; for Linear growth, mm radius of growth: 0.1 ml allicin solution 2 mg/ml; for Effect on growth of the fungus (in words): in vitro
Method: as §1, §2

Sclerotinia sclerotiorum = assay: as above; assay type: cell-based; settings: PDA; for Linear growth, mm radius of growth: 0.1 ml allicin solution 2 mg/ml; for Effect on growth of the fungus (in words): in vitro
Method: as §1, §2

Sclerotium Rolfsii Sacc. = assay: as above; assay type: cell-based; settings: PDA; for Linear growth, mm radius of growth: 0.1 ml allicin solution 2 mg/ml; for Effect on growth of the fungus (in words): in vitro
Method: as §1, §2

Trichoderma hurzianum = assay: as above; assay type: cell-based; settings: PDA; for Linear growth, mm radius of growth: 0.1 ml allicin solution 2 mg/ml; for Effect on growth of the fungus (in words): in vitro
Method: as §1, §2

Rhizoctonia solani = assay: Diseased bean plants (Phaseolus vulgaris L.) grown in Rhizoctonia solani contaminated soil pre-treated with allicin; assay type: in vivo
Method: as §1
Boxes with raw red-brown, sandy loam soil (0.5 Kg) 1.0 were precontaminated with viable Rhizoctonia solani. The fungi-contaminated soil in the boxes were subsequently irrigated with aqueous solutions (30 ml/box) containing different concentrations of allicin (A: 0.31 mg allicin/ml; B: 0.62 mg allicin/ml; C: 0.94 mg allicin/ml; D: 1.25 mg allicin/ml). Irrigations were repeated 3 times, with 3 days intervals between treatments. Controls were irrigated with similar volumes of water. Four soil replicates were irrigated for each allicin concentration as well as for the control. Following each irrigation step, the soil boxes were closed in nylon bags. Four days after the last irrigation, the bags were opened and the boxes with the soil ventilated for 5 more days.
Bean seeds (Phaseolus vulgaris L.) (10/box) were then planted in each of the boxes and the growth and development of disease in the plants was determined after 14 days. As shown in Table 2 and FIGS. 1-2, black columns, 86% of the control plants became diseased whereas in soil pre-irrigated with 0.94 (FIGS. 1-2, C) and 1.25 (FIGS. 1-2, D) mg/ml allicin, less than 20% of the plants became diseased (decrease of >80% in diseased plants, FIG. 2). The effect of allicin was dose-dependent and at the lowest concentration tested (0.31 mg allicin/ml), the decrease in the number of diseased plants was only 14% (Table 2 and FIGS. 1-2, black columns).
In order to test the time length efficacy of soil that was pre-treated with allicin, an additional experiment was done in the same soil boxes. After the first cycle of the bean growth experiment for 14 days described above, the plants were removed and a second cycle of bean growth was conducted whereby a new set of bean seeds was immediately seeded in the same soil boxes and the development of disease in the plants grown in this second cycle was determined after 14 days. The results are shown in Table 2 and in FIGS. 1-2, gray columns. […] Some protection (33%) was also observed in soils irrigated with 0.94 mg allicin/ml (C).

Compound: C=CCS[S+]([O-])CC=C (stereo not shown) [Allicin, thio-2-propene-1-sulfinic acid S-allyl ester]
- Linear growth, mm radius of growth ([1]; 24 hrs): 2.5 mm
- Linear growth, mm radius of growth ([1]; 48 hrs): 7.5 mm
- Linear growth, mm radius of growth ([1]; 72 hrs): 12.5 mm
- Linear growth, mm radius of growth ([1]; 96 hrs): 15 mm
- Effect on growth of the fungus (in words) [1]: Very significant inhibition of growth
- Linear growth, mm radius of growth (Rhizoctonia solani Kuhn; 24 hrs): 2.5 mm
- Linear growth, mm radius of growth (Rhizoctonia solani Kuhn; 48 hrs): 7.5 mm
- Linear growth, mm radius of growth (Rhizoctonia solani Kuhn; 72 hrs): 15 mm
- Effect on growth of the fungus (in words) (Rhizoctonia solani Kuhn): Very significant inhibition of growth
- Linear growth, mm radius of growth (Sclerotinia sclerotiorum; 24 hrs): 0.5 mm
- Linear growth, mm radius of growth (Sclerotinia sclerotiorum; 48 hrs): 7.5 mm
- Linear growth, mm radius of growth (Sclerotinia sclerotiorum; 72 hrs): 20 mm
- Linear growth, mm radius of growth (Sclerotinia sclerotiorum; 96 hrs): 45 mm
- Effect on growth of the fungus (in words) (Sclerotinia sclerotiorum): Very significant inhibition of growth
- Linear growth, mm radius of growth (Sclerotium Rolfsii Sacc.; 24 hrs): 0 mm
- Linear growth, mm radius of growth (Sclerotium Rolfsii Sacc.; 48 hrs): 2.5 mm
- Linear growth, mm radius of growth (Sclerotium Rolfsii Sacc.; 72 hrs): 15 mm
- Effect on growth of the fungus (in words) (Sclerotium Rolfsii Sacc.): Very significant inhibition of growth
- Linear growth, mm radius of growth (Trichoderma hurzianum; 24 hrs): 2.5 mm
- Linear growth, mm radius of growth (Trichoderma hurzianum; 48 hrs): 7.5 mm
- Linear growth, mm radius of growth (Trichoderma hurzianum; 72 hrs): 22.5 mm
- Effect on growth of the fungus (in words) (Trichoderma hurzianum): Very significant inhibition of growth
- Diseased Plants (%) (Rhizoctonia solani; First Cycle (14 days after planting), treatment A: 0.31 mg allicin/ml (30 ml), 3 irrigations, 0.5 Kg soil): 74%
- Diseased Plants (%) (Rhizoctonia solani; First Cycle (14 days after planting), treatment B: 0.62 mg allicin/ml (30 ml), 3 irrigations, 0.5 Kg soil): 39%
- Diseased Plants (%) (Rhizoctonia solani; First Cycle (14 days after planting), treatment C: 0.94 mg allicin/ml (30 ml), 3 irrigations, 0.5 Kg soil): 16%
- Diseased Plants (%) (Rhizoctonia solani; First Cycle (14 days after planting), treatment C: 0.94 mg allicin/ml (30 ml), 3 irrigations, 0.5 Kg soil, listed as allicin): less than 20%
- Diseased Plants (%) (Rhizoctonia solani; First Cycle (14 days after planting), treatment D: 1.25 mg allicin/ml (30 ml), 3 irrigations, 0.5 Kg soil): 18%
- Diseased Plants (%) (Rhizoctonia solani; First Cycle (14 days after planting), treatment D: 1.25 mg allicin/ml (30 ml), 3 irrigations, 0.5 Kg soil, listed as allicin): less than 20%
- Diseased Reduction (%) (Rhizoctonia solani; First Cycle, treatment A: 0.31 mg allicin/ml (30 ml)): 14%
- Diseased Reduction (%) (Rhizoctonia solani; First Cycle, treatment B: 0.62 mg allicin/ml (30 ml)): 55%
- Diseased Reduction (%) (Rhizoctonia solani; First Cycle, treatment C: 0.94 mg allicin/ml (30 ml)): 81%
- Diseased Reduction (%) (Rhizoctonia solani; First Cycle, treatment C: 0.94 mg allicin/ml (30 ml), listed as allicin): > 80%
- Diseased Reduction (%) (Rhizoctonia solani; First Cycle, treatment D: 1.25 mg allicin/ml (30 ml)): 90%
- Diseased Reduction (%) (Rhizoctonia solani; First Cycle, treatment D: 1.25 mg allicin/ml (30 ml), listed as allicin): > 80%
- Diseased Plants (%) (Rhizoctonia solani; Second Cycle (14 days after replanting), treatment A: 0.31 mg allicin/ml (30 ml)): 90%
- Diseased Plants (%) (Rhizoctonia solani; Second Cycle (14 days after replanting), treatment A: 0.31 mg allicin/ml (30 ml), listed as allicin): almost identical to that of the controls
- Diseased Plants (%) (Rhizoctonia solani; Second Cycle (14 days after replanting), treatment B: 0.62 mg allicin/ml (30 ml)): 80%
- Diseased Plants (%) (Rhizoctonia solani; Second Cycle (14 days after replanting), treatment B: 0.62 mg allicin/ml (30 ml), listed as allicin): almost identical to that of the controls
- Diseased Plants (%) (Rhizoctonia solani; Second Cycle (14 days after replanting), treatment C: 0.94 mg allicin/ml (30 ml)): 60%
- Diseased Plants (%) (Rhizoctonia solani; Second Cycle (14 days after replanting), treatment D: 1.25 mg allicin/ml (30 ml)): 30%
- Diseased Reduction (%) (Rhizoctonia solani; Second Cycle, treatment A: 0.31 mg allicin/ml (30 ml)): 0%
- Diseased Reduction (%) (Rhizoctonia solani; Second Cycle, treatment B: 0.62 mg allicin/ml (30 ml)): 11%
- Diseased Reduction (%) (Rhizoctonia solani; Second Cycle, treatment C: 0.94 mg allicin/ml (30 ml)): 33%
- Diseased Reduction (%) (Rhizoctonia solani; Second Cycle, treatment D: 1.25 mg allicin/ml (30 ml)): 66%

Compound: allylcysteine sulfoxide [alliin, reference compound]
- Effect on growth of the fungus (in words) [1]: no effect
- Effect on growth of the fungus (in words) (Rhizoctonia solani Kuhn): no effect
- Effect on growth of the fungus (in words) (Sclerotinia sclerotiorum): no effect
- Effect on growth of the fungus (in words) (Sclerotium Rolfsii Sacc.): no effect
- Effect on growth of the fungus (in words) (Trichoderma hurzianum): no effect
